According to patent US20240246978A1, “PHENYLDIHYDROPYRIMIDINE COMPOUND AND USE THEREOF” (HEPAGENE THERAPEUTICS (HK) LIMITED, priority 2021, published 2024):

tested on: Hepatitis B virus (HBV); test: In vitro anti-HBV activity by q-PCR assay of HBV DNA in HepG2.2.15 cell supernatant; format: cell-based; conditions: HepG2.2.15 cells; inhibition of HBV DNA copies in supernatant by qPCR; compound renewed after 3 days, 3 more days; 0.5% DMSO; read-out: EC50
Protocol: Compound preparation and cell culture: The test compounds were prepared as 20 mM storage solution using the appropriate volume of dimethyl sulfoxide (DMSO) (Sigma-D2650) according to the relative molecular weight and mass.
The growth of HepG2.2.15 cells (Wuhan Institute of Virology, Chinese Academy of Sciences) in the culture flasks were observed under a microscope, the cells were digested with trypsin (Invitrogen-25300062), and resuspended with cell culture medium (DMEM/F12, Invitrogen-11330032; containing 2% fetal bovine serum FBS, HyClone-SV30087.03, 100 U/Ml penicillin, Hyclone-SV30010, 100 μg/mL streptomycin, Hyclone-SV30010, 1% non-essential amino acids, Invitrogen-11140-050, 2 mM L-glutamine, Gibco-35050-061); the cells were counted using a Vi-Cell cell counter and the volume and concentration of cell suspension were adjusted according to the number of cell spreads and the number of cells required per well, and the cell spreading density of the 96-well cell culture plates (Costar-3599) was 60,000 cells/well, 100 μL/well; the cell plates with the cells were placed in a 5% CO2, 37° C. incubator and incubated overnight.
The experiments were set at a starting concentration of 100 μM for the test compound and 20 nM for the reference compound entecavir (ETV, WuXi AppTec), with a 3-fold gradient dilution and 9 concentration points. A 96-well V-bottom plate was used, the corresponding test compounds and reference compounds ETV were diluted to obtain 200× compound source plate; a sterile 2 mL deep-well plate was added with 297 μL of cell culture medium, 3 μL of the compounds in the 200× compound source plate were added to the corresponding deep-well plate, diluted by 100-fold, and mixed well with a pipette tip blowing to obtain a 2× compound plate, and then the plate was sealed with parafilm and then stored in a nitrogen cabinet to be used for replacement of the compounds. The cell plate laid out the day before was took and added with 100 μL of diluted 2× compound to each of the corresponding cell wells with a final concentration of 0.5% DMSO. Example of compound distribution in the cell plate is shown below*:
After the cell plates were reintroduced into a 5% CO2, 37° C. cell incubator for 3 days, the medium was removed from the cell culture plates and 100 μL of cell culture solution was replenished to each well. The 200× compound source plate configured was removed from the nitrogen cabinet, a sterile 2 mL deep-well plate was added with 297 μL of cell culture medium, 3 μL of the compounds in the 200× compound source plate was added to the corresponding deep-well plate, diluted by 100-fold, and mixed well with a pipette tip blowing to obtain a 2× compound plate. To the cell wells containing 100 μL of medium, 100 μL of diluted 2× compound was added, with a final concentration of DMSO of 0.5%; the cell plates were reintroduced into 5% CO2 and incubated in a 37° C. cell incubator for 3 days.
The 96-well cell plate was removed from the incubator, centrifuged at 3,000 rpm for 2 min with centrifuge (Beckman, Allegra-X15R), and the cell supernatant was collected for subsequent HBV DNA extraction. 50 μL of cell culture solution were added to each well in the cell plate, then 50 μL of CellTiter-Glo Detection Reagent (Promega-G7573) were added to each well, and the plate was shaken for 10 min away from light to allow the cells to be lysed; the luminescence value of each well was detected by using an enzyme labeller (BioTek Synergy 2).
HBV DNA Extraction: HBV DNA was extracted from cell supernatants using the QIAamp 96 DNA Blood Kit (Qiagen-51162) as described in the kit instructions; the volume of cell supernatant was 150 μL and the final DNA elution volume was 180 μL. […]

| Compound | EC50 [nM] |
| --- | --- |
| C#Cc1cc(F)ccc1[C@H]1N=C(c2nccs2)NC(CN2CCN3C(=O)N(CC(C)(C)C(=O)O)C[C@@H]3C2)=C1C(=O)OCC [SZ-023089] | < 50 |
| C#Cc1cc(F)ccc1[C@H]1N=C(c2nccs2)NC(CN2[C@@H]3CC(CC(=O)O)C[C@H]2C(F)(F)C3)=C1C(=O)OCC (some centres unmarked) [SZ-023091] | < 50 |
| C#Cc1cc(F)ccc1[C@@H]1N=C(c2nccs2)NC(CN2CCO[C@H](/C=C/C(=O)O)C2)=C1C(=O)OCC [SZ-023093] | < 50 |
| C#Cc1cc(F)ccc1[C@H]1N=C(c2nccs2)NC(CN2CCO[C@H](CCC(=O)O)C2)=C1C(=O)OCC [SZ-023095] | < 50 |
| C#Cc1cc(F)ccc1[C@@H]1N=C(c2nccs2)NC(CN2CCOCC2)=C1C(=O)OCC [SZ-023115-P1] | > 1000 |
| C#Cc1cc(F)ccc1[C@H]1N=C(c2nccs2)NC(CN2CCOCC2)=C1C(=O)OCC [SZ-023115-P2] | < 50 |

same assay, conditions: Hepatitis B virus, 72 h; HepG2.2.15 cells; inhibition of HBV DNA copies in supernatant by qPCR; compound renewed after 3 days, 3 more days; 0.5% DMSO; read-out: EC50

| Compound | EC50 [nM] |
| --- | --- |
| C#Cc1cc(F)ccc1C1N=C(c2nccs2)NC(CN2CCN3C(=O)N(CC(C)(C)C(=O)O)C[C@@H]3C2)=C1C(=O)OCC (mixture of isomers) [SZ-023089RAC] | < 50 |
| C#Cc1cc(F)ccc1C1N=C(c2nccs2)NC(CN2CCO[C@H](/C=C/C(=O)O)C2)=C1C(=O)OCC (mixture of isomers) [SZ-023093RAC] | < 50 |
| C#Cc1cc(F)ccc1C1N=C(c2nccs2)NC(CN2CCO[C@H](CCC(=O)O)C2)=C1C(=O)OCC (mixture of isomers) [SZ-023095RAC] | 50 to 100 |
| C#Cc1cc(F)ccc1C1N=C(c2nccs2)NC(CN2CCOCC2)=C1C(=O)OCC (racemic) [SZ-023115RAC] | < 50 |
| CCOC(=O)C1=C(CN2CCOCC2)NC(c2nccs2)=NC1c1ccc(F)cc1C#N (racemic) [SZ-023117RAC] | 50 to 100 |
| C#Cc1c(C2N=C(c3nccs3)NC(CN3CCN4C(=O)N(CC(C)(C)C(=O)O)C[C@@H]4C3)=C2C(=O)OCC)ccc(F)c1F (some centres unmarked) [SZ-023127] | < 50 |
| C#Cc1cc(F)c(F)cc1[C@@H]1N=C(c2nccs2)NC(CN2CCN3C(=O)N(CC(C)(C)C(=O)O)C[C@@H]3C2)=C1C(=O)OCC [SZ-023129] | 100 to 1000 |
| [2H]C([2H])([2H])C([2H])([2H])OC(=O)C1=C(CN2CCN3C(=O)N(CC(C)(C)C(=O)O)C[C@@H]3C2)NC(c2nccs2)=N[C@H]1c1cccc(F)c1C#C [SZ-023133] | < 50 |
| [2H]C([2H])([2H])OC(=O)C1=C(CN2CCO[C@H](/C=C/C(=O)O)C2)NC(c2nccs2)=N[C@H]1c1ccc(F)cc1C#C [SZ-023143] | < 50 |
| C#Cc1cc(F)ccc1[C@@H]1N=C(c2nccs2)NC(CN2CCN3C(=O)N(CC(C)(C)C(=O)O)C[C@@H]3C2)=C1C(=O)OC [SZ-023145] | < 50 |
| [2H]C([2H])([2H])OC(=O)C1=C(CN2CCN3C(=O)N(CC(C)(C)C(=O)O)C[C@@H]3C2)NC(c2nccs2)=N[C@H]1c1ccc(F)cc1C#C [SZ-023147] | < 50 |
| [2H]C([2H])([2H])C([2H])([2H])OC(=O)C1=C(CN2CCN3C(=O)N(CC(C)(C)C(=O)O)C[C@@H]3C2)NC(c2nccs2)=N[C@H]1c1ccc(F)cc1C#C [SZ-023149] | < 50 |
| C#Cc1cc(F)ccc1[C@@H]1N=C(c2nccs2)NC(CN2CCN3C(=O)N(CC(C)(C)C(=O)O)C[C@@H]3C2)=C1C(=O)SC [SZ-023151] | 100 to 1000 |
| C#Cc1cc(F)ccc1[C@@H]1N=C(c2nccs2)NC(CN2CCO[C@H](C3CC3C(=O)O)C2)=C1C(=O)OCC (some centres unmarked) [SZ-023342] | 50 to 100 |
| C#Cc1cc(Cl)ccc1C1N=C(c2nccs2)NC(CN2CCN3C(=O)N(CC(C)(C)C(=O)O)C[C@@H]3C2)=C1C(=O)OCC (some centres unmarked) [SZ-023366] | < 50 |
| C#Cc1cc(C)ccc1C1N=C(c2nccs2)NC(CN2CCN3C(=O)N(CC(C)(C)C(=O)O)C[C@@H]3C2)=C1C(=O)OCC (some centres unmarked) [SZ-023368] | 100 to 1000 |
| C#Cc1ccccc1C1N=C(c2nccs2)NC(CN2CCN3C(=O)N(CC(C)(C)C(=O)O)C[C@@H]3C2)=C1C(=O)OCC (some centres unmarked) [SZ-023370] | 50 to 100 |
| C#Cc1cc(Cl)ccc1C1N=C(c2nccs2)NC(CN2CCN3C(=O)N(c4ccc(CCC(=O)O)cc4)C[C@@H]3C2)=C1C(=O)OCC (some centres unmarked) [SZ-023380] | < 50 |
| C#Cc1cc(F)ccc1[C@@H]1N=C(c2nccs2)NC(CN2CCN3C(=O)N(c4ccc(CCC(=O)O)cc4)C[C@@H]3C2)=C1C(=O)OCC [SZ-023384] | < 50 |
| C#Cc1c(F)cccc1[C@@H]1N=C(c2nccs2)NC(CN2CCN3C(=O)N(c4ccc(CCC(=O)O)cc4)C[C@@H]3C2)=C1C(=O)OCC [SZ-023386] | < 50 |
| C#Cc1cc(F)ccc1[C@@H]1N=C(c2nccs2)NC(CN2CCN3C(=O)N(c4ccc(C(=O)O)c(F)c4)C[C@@H]3C2)=C1C(=O)OCC [SZ-023388] | < 50 |
| C#Cc1c(F)cccc1[C@@H]1N=C(c2nccs2)NC(CN2CCN3C(=O)N(c4ccc(C(=O)O)c(F)c4)C[C@@H]3C2)=C1C(=O)OCC [SZ-023390] | < 50 |
| C#Cc1cc(F)ccc1[C@@H]1N=C(c2nccs2)NC(CN2CCN3C(=O)N(CC(C)(C)CC(=O)O)C[C@@H]3C2)=C1C(=O)OCC [SZ-023392] | < 50 |

same assay, conditions: Hepatitis B virus, HepG2.2.15, 72 h

| Compound | EC50 [nM] |
| --- | --- |
| C#Cc1cc(F)ccc1C1N=C(c2nccs2)NC(CN2[C@@H]3C[C@H](CC(=O)O)C[C@H]2C(F)(F)C3)=C1C(=O)OCC (mixture of isomers) [SZ-023091RAC] | < 50 |
| C#Cc1c(F)cccc1[C@@H]1N=C(c2nccs2)NC(CN2[C@@H]3C[C@H](CC(=O)O)C[C@H]2C(F)(F)C3)=C1C(=O)OCC [SZ-023085C] | < 50 |
| C#Cc1cc(F)ccc1[C@@H]1N=C(c2nccs2)NC(CN2[C@@H]3CC(CC(=O)O)C[C@H]2C(F)(F)C3)=C1C(=O)OCC (some centres unmarked) [SZ-023091C] | < 50 |
